Each structure is given as a SMILES string. pIC50: −log10 of the molar value.

T1 sequence (Q16539 whole entry): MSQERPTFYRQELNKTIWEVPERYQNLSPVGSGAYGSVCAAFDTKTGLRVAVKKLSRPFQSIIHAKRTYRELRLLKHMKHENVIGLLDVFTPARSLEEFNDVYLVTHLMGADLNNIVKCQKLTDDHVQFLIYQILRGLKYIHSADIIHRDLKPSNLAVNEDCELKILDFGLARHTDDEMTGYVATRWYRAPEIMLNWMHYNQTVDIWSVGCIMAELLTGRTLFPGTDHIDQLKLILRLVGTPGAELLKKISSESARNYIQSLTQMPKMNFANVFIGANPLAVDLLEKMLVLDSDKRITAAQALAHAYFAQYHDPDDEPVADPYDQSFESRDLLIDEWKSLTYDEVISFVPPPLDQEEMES

This test has as its target T1, p38 (Homo sapiens, UniProt Q16539).
T1 construct: made in house; host or cells: Trichoplusia ni (Tn-368) High-Five insect cells infected with recombinant baculovirus (virus made in Sf9)
The experiment in a line: p38 inhibition assay: inhibition of phosphorylation of EGF receptor peptide. In kind it is biochemical. As to conditions: activated p38 (5 nM), EGF receptor peptide 200 μM, ATP 100 μM, 30 min at 30° C., pH 7.6, HPLC. The text has this: Two splice variants of human p38 kinase, CSBPl and CSBP2, have been identified. Specific oligonucleotide primers were used to amplify the coding region of CSBP2 cDNA using a HeLa cell library (Stratagene) as a template. The polymerase chain reaction product was cloned into the pET-15b vector (Novagen). The baculovirus transfer vector, pVL-(His)6-p38 was constructed by subcloning a XbaI-BamHI fragment of pET15b-(His)6-p38 into the complementary sites in plasmid pVL1392 (Pharmingen).
P38 was activated by combining 0.5 mg/ml p38 with 0.005 mg/ml DD-double mutant MKK6 in Buffer B+10 mM MgCl2, 2 mM ATP, 0.2 mM Na2VO4 for 30 minutes at 20° C. The activation mixture was then loaded onto a 1.0×10 cm MonoQ column (Pharmacia) and eluted with a linear 20 column volume gradient to 1.0 M NaCl in Buffer B. The activated p38 eluted after the ADP and ATP. The activated p38 peak was pooled and dialyzed against buffer B+0.2 mM Na2VO4 to remove the NaCl. The dialyzed protein was adjusted to 1.1M potassium phosphate by addition of a 4.0M stock solution and loaded onto a 1.0×10 cm HIC (Rainin Hydropore) column previously equilibrated in Buffer D (10% glycerol, 20 mM β-glycerophosphate, 2.0 mM DTT)+1.1MK2HPO4. The protein was eluted with a 20 column volume linear gradient to Buffer D+50 mM K2HPO4. The double phosphorylated p38 eluted as the main peak and was pooled for dialysis against Buffer B+0.2 mM Na2VO4. The activated p38 was stored at -70° C.
Inhibition of Phosphorylation of EGF Receptor Peptide
This assay was carried out in the presence of 10 mM MgCl2, 25 mM β-glycerophosphate, 10% glycerol and 100 mM HEPES buffer at pH 7.6. For a typical IC50 determination, a stock solution was prepared containing all of the above components and activated p38 (5 nM). The stock solution was aliquotted into vials. A fixed volume of DMSO or inhibitor in DMSO (final concentration of DMSO in reaction was 5%) was introduced to each vial, mixed and incubated for 15 minutes at room temperature. EGF receptor peptide, […], a phosphoryl acceptor in p38-catalyzed kinase reaction (1), was added to each vial to a final concentration of 200 μM. The kinase reaction was initiated with ATP (100 μM) and the vials were incubated at 30° C. After 30 minutes, the reactions were quenched with equal volume of 10% trifluoroacetic acid (TFA).
The phosphorylated peptide was quantified by HPLC analysis. Separation of phosphorylated peptide from the unphosphorylated peptide was achieved on a reverse phase column (Deltapak, 5 μm, C18 100D, part no. 011795) with a binary gradient of water and acteonitrile, each containing 0.1% TFA. IC50 (concentration of inhibitor yielding 50% inhibition) was determined by plotting the % activity remaining against inhibitor concentration.
The pIC50 is the IC50 on a negative log10 scale, so that one unit is a factor of ten. Read a low pIC50 as a high IC50. For `Cc1cc(Cl)c([N+](=O)[O-])cc1NC(=O)Nc1ccccc1` [Compound 3], the pIC50 was 6.43.
`COc1cc(Cl)c(C)cc1NC(=O)Nc1ccccc1` [Compound 4] showed a pIC50 of 7.00.
`Cc1cc(C)c(NC(=O)Nc2ccccc2)cc1C` [Compound 10] showed a pIC50 of 5.38.
For `COc1cc(OC)c(NC(=O)Nc2ccccc2)cc1Cl` [Compound 12], the pIC50 was 6.42. Against the preceding molecule, the pIC50 is 1.04 log units higher.
`COc1cc([N+](=O)[O-])c(C)cc1NC(=O)Nc1ccccc1` [Compound 13] gave a pIC50 of 6.85. Compared with the last molecule, the pIC50 is 0.43 log units higher.
As to `Cc1cc(NC(=O)Nc2ccccc2)c(Cl)cc1F` [Compound 15], the pIC50 is 5.24.
Regarding `COc1cc(OC)c(NC(=O)Nc2ccc(Oc3ccccc3)cc2)cc1Cl` [Compound 20], the pIC50 is 5.10.
`COc1cc(OC)c(NC(=O)Nc2cccc(Oc3ccccc3)c2)cc1Cl` [Compound 22] showed a pIC50 of 5.72.
Take `COc1cc(OC)c(NC(=O)Nc2ccc(Cl)c(Cl)c2)cc1Cl` [Compound 24]: the pIC50 is 6.30.
For the molecule `COc1cc(OC)c(NC(=O)Nc2ccccc2)cc1Cl` [Compound 25], the pIC50 was 6.00. This pIC50 is 0.30 log units lower than that of the molecule before.
As for `COc1cc(OC)c(NC(=O)Nc2ccccc2O)cc1Cl` [Compound 28], the pIC50 was 5.13.
The molecule `COc1cc(OC)c(NC(=O)Nc2ccc(F)cc2)cc1Cl` [Compound 29] gave a pIC50 of 5.84.
`COc1cc(OC)c(NC(=O)Nc2ccc(Cl)cc2F)cc1Cl` [Compound 30] showed a pIC50 of 5.92.
The molecule `COc1cc(OC)c(NC(=O)Nc2ccccc2F)cc1Cl` [Compound 31] gave a pIC50 of 6.30.
For the molecule `COc1cc(OC)c(NC(=O)Nc2ccc(F)c(F)c2)cc1Cl` [Compound 33], the pIC50 was 5.74.
The molecule `COc1cc(OC)c(NC(=O)N(CC(=O)O)c2ccccc2)cc1Cl` [Compound 34] gave a pIC50 of 4.72.
Regarding `COc1cc(OC)c(NC(=O)Nc2cccc(F)c2)cc1Cl` [Compound 35], the pIC50 is 6.20.
As for `COc1cc(OC)c(NC(=O)Nc2cc(C)ccc2Cl)cc1Cl` [Compound 37], the pIC50 is 5.29.
In the case of `COc1cc(OC)c(NC(=O)Nc2ccc3c(c2)OCO3)cc1Cl` [Compound 40], the pIC50 is 5.82.
`COc1cc(Cl)c(C)cc1NC(=O)Nc1ccccc1` [Compound 61] showed a pIC50 of 6.85.
On to `O=C(Nc1ccccc1)Nc1ccc(Cl)c(Cl)c1` [Compound 62], for which the pIC50 was 5.25.
In the case of `O=C(Nc1cccc(C(=O)O)c1)Nc1ccc(Cl)c(Cl)c1` [Compound 63], the pIC50 is 5.24.
As for `O=C(Nc1ccc(Cl)c(Cl)c1)Nc1ccc(Cl)c(Cl)c1` [Compound 64], the pIC50 was 6.89.
In turn, `NC(=O)c1ccccc1NC(=O)Nc1ccc(Cl)c(Cl)c1` [Compound 107] showed a pIC50 of 7.00.
For `COc1cc(C)cc(NC(=O)Nc2ccc(Cl)c(Cl)c2)c1` [Compound 118] the value was 4.83; for `COC(=O)c1ccccc1NC(=O)Nc1ccc(Cl)c(Cl)c1` [Compound 119], 5.20; for `CCOc1ccccc1NC(=O)Nc1ccc(Cl)c(Cl)c1` [Compound 121], 5.66.
`O=C(Nc1ccc(Cl)c(Cl)c1)Nc1ccccc1Cl` [Compound 122] had a pIC50 of 4.82.
The molecule `O=C(Nc1ccc(Cl)c(Cl)c1)Nc1ccc(Br)cc1C(=O)O` [Compound 125] showed a negative logarithm of the IC50 (pIC50) of 5.08.
For `O=C(Nc1ccc(Cl)c(Cl)c1)Nc1ccc2c(c1)OCCO2` [Compound 126] the value was 5.25; for `O=C(Nc1ccc(Cl)c(Cl)c1)Nc1cccc2cccnc12` [Compound 131], 5.20.

For the origin of these results see patent US6093742A, “Inhibitors of p38” (Vertex Pharmaceuticals, Inc., priority 1997, dated 2000).
